These results are taken from BindingDB's records for doi:10.1016/0960-894X(95)00530-0 (1995).

In this assay the target is Gastrin/cholecystokinin type B receptor (Cavia porcellus). Put plainly: Displacement of [125I]-BH CCK-8S from Cholecystokinin type B receptor in guinea pig cortex. (Loss of bound radioactivity is the signal in a displacement assay; it reports binding, not function.)
As to `Cc1cccc(NC(=O)NC2N=C(N3CCNCC3)c3ccccc3N(C)C2=O)c1` (centres undefined) [1-(1-Methyl-2-oxo-5-piperazin-1-yl-2,3-dihydro-1H-benzo[e][1,4]diazepin-3-yl)-3-m-tolyl-urea], the IC50 (usually the concentration that gives 50% inhibition) stood at 880 nM. In turn, `Cc1cccc(NC(=O)N[C@@H]2N=C(c3ccccc3)c3ccccc3N3C[C@H](C)N=C23)c1` [1-((2S,4R)-2-Methyl-6-phenyl-2,4-dihydro-1H-3,5,10b-triaza-benzo[e]azulen-4-yl)-3-m-tolyl-urea] registered an IC50 of 1.8 nM. Under `CCCN1C(=O)C(NC(=O)Nc2cccc(C(F)(F)F)c2)N=C(N2CCN(C)CC2)c2ccccc21` (centres undefined) [1-[5-(4-Methyl-piperazin-1-yl)-2-oxo-1-propyl-2,3-dihydro-1H-benzo[e][1,4]diazepin-3-yl]-3-(3-trifluoromethyl-phenyl)-urea] stands 12 nM. The same measure for `Cc1cccc(NC(=O)NC2N=C(N3CCN(C(=O)OC(C)(C)C)CC3)c3ccccc3N(C)C2=O)c1` (centres undefined) [4-[1-Methyl-2-oxo-3-(3-m-tolyl-ureido)-2,3-dihydro-1H-benzo[e][1,4]diazepin-5-yl]-piperazine-1-carboxylic acid tert-butyl ester]: greater than 3000 nM.
